Source: US8163766B2, “Beta-secretase modulators and methods of use” (Amgen Inc., priority 2005, dated 2012)

Test system: Aβ 40 in conditioned media of cells stably expressing Amyloid Precursor Protein (APP)
Assay: BACE Cell-Based Assay (Aβ40 in conditioned medium, sandwich ELISA)
Details: 24 hours of incubation with the test compounds, Aβ 40 by sandwich ELISA, read-out: IC50 values in the cell-based assay (inhibition of Aβ 40)
Outline: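 APP-stably-expressing cells in DMEM/10% FBS exposed 24 h to 10-point compound dilutions starting at 100 or 10 μM, 0.1% DMSO final. Aβ40 in conditioned medium measured by sandwich ELISA (pAb40 capture, biotinylated 6E10 detection, Eu time-resolved fluorescence); IC50 from percent inhibition versus concentration.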

Row | SMILES | IC50 [µM]
1 | CCc1ccc2c(c1)[C@@H](NC[C@@H](O)[C@H](Cc1ccccc1)NC(=O)c1cc(-c3ccccc3F)c(=O)n3c1CCC3C)CC1(CCCC1)O2 (stereo partly drawn) [Example 159] | ≤ 5
2 | CCc1ccc2c(c1)[C@@H](NC[C@@H](O)[C@H](Cc1ccccc1)NC(=O)c1ccc(=O)n(C3CCCCC3)c1)CC1(CCCC1)O2 [Example 160] | ≤ 5
3 | CCc1ccc2c(c1)[C@@H](NC[C@@H](O)[C@H](Cc1ccccc1)NC(=O)c1ccc(=O)n(C3CCCC(C)C3)c1)CC1(CCCC1)O2 (stereo partly drawn) [Example 161] | ≤ 5
4 | CCc1ccc2c(c1)[C@@H](NC[C@@H](O)[C@H](Cc1ccccc1)NC(=O)c1cn(C3CCCC3)c(=O)c3ccccc13)CC1(CCC1)O2 [Example 162] | ≤ 5
5 | CCc1ccc2c(c1)[C@@H](NC[C@@H](O)[C@H](Cc1ccccc1)NC(=O)c1ccc(=O)n(C3CCCC3)c1)CC(C)(C)O2 [Example 163] | ≤ 5
6 | CCc1ccc2c(c1)C(NC[C@@H](O)[C@H](Cc1ccccc1)NC(=O)c1cc(-c3ccccn3)c(=O)n(C3CCCC3)c1)CC1(CCC1)O2 (stereo partly drawn) [Example 164, 1-Cyclopentyl-N-((2S,3R)-4-((S)-6-ethyl-2,2-spirocyclobutylchroman-4-ylamino)-3-hydroxy-1-phenylbutan-2-yl)-6-oxo-5-(pyridin-2-yl)-1,6-dihydropyridine-3-carboxamide] | ≤ 5
7 | CCc1ccc2c(c1)[C@H](NC[C@@H](O)[C@H](Cc1ccccc1)NC(=O)c1cc(-c3ccccn3)c(=O)n(C(C)C)c1)CC1(CCCC1)O2 [Example 165, N-((2S,3R)-4((R)-6-ethyl-2,2-spirocyclopentylchroman-4-ylamino)-3-hydroxy-1-phenylbutan-2-yl)-1-isopropyl-6-oxo-5-(pyridin-2-yl)-1,6-dihydropyridine-3-carboxamide] | ≤ 5
8 | O=C(N[C@@H](Cc1ccccc1)[C@H](O)CN[C@H]1CC2(CCC2)Nc2ccc(Br)cc21)c1cc(-c2ccccn2)c(=O)n(C2CCCC2)c1 [Example 471, N-((1S,2R)-3-(((4′S)-6′-bromo-3′,4′-dihydro-1′H-spiro[cyclobutane-1,2′-quinolin]-4′-yl)amino)-2-hydroxy-1-(phenylmethyl)propyl)-1′-cyclopentyl-2′-oxo-1′,2′-dihydro-2,3′-bipyridine-5′-carboxamide] | ≤ 5
9 | O=C(N[C@@H](Cc1ccc(F)cc1)[C@H](O)CN[C@H]1CC2(CCC2)Oc2cc(F)c(-n3cccn3)cc21)C1CC1 [Example 472, N-((1S,2R)-1-((4-fluorophenyl)methyl)-3-(((4S)-7-fluoro-6-(1H-pyrazol-1-yl)-3,4-dihydrospiro[chromene-2,1′-cyclobutan]-4-yl)amino)-2-hydroxypropyl)cyclopropanecarboxamide] | ≤ 5
10 | O=C(N[C@@H](Cc1ccc(F)cc1)[C@H](O)CN[C@H]1CC2(CCC2)Oc2cc(F)c(-n3cccn3)cc21)C1CCC1 [Example 473, N-((1S,2R)-1-((4-fluorophenyl)methyl)-3-(((4S)-7-fluoro-6-(1H-pyrazol-1-yl)-3,4-dihydrospiro[chromene-2,1′-cyclobutan]-4-yl)amino)-2-hydroxypropyl)cyclobutanecarboxamide] | ≤ 5
11 | CCc1ccc2c(c1)[C@@H](NCC(=O)[C@H](Cc1ccccc1)NC(=O)[C@@H]1CN(C(=O)N3CCCCC3)CCO1)CC(C)(C)O2 [Example 475, (2S)-N-((1S)-3-(((4S)-6-ethyl-2,2-dimethyl-3,4-dihydro-2H-chromen-4-yl)amino)-2-oxo-1-(phenylmethyl)propyl)-4-(1-piperidinylcarbonyl)-2-morpholinecarboxamide] | ≤ 5
12 | O=C(N[C@@H](Cc1ccccc1)[C@H](O)CN[C@H]1CC2(CCC2)Oc2ccccc21)c1cc(-c2ccccn2)c(=O)n(C2CCCC2)c1 [Example 476, 1′-cyclopentyl-N-((1S,2R)-3-((4S)-3,4-dihydrospiro[chromene-2,1′-cyclobutan]-4-ylamino)-2-hydroxy-1-(phenylmethyl)propyl)-2′-oxo-1′,2′-dihydro-2,3′-bipyridine-5′-carboxamide] | ≤ 5
13 | CC#CC[C@H](NC(=O)c1cc(-c2ccccn2)c(=O)n(C2CCCC2)c1)[C@H](O)CN[C@H]1CC2(CCC2)Oc2ccc(CC)cc21 [Example 477, 1′-cyclopentyl-N-((1S)-1-((1R)-2-(((4S)-6-ethyl-3,4-dihydrospiro[chromene-2,1′-cyclobutan]-4-yl)amino)-1-hydroxyethyl)-3-pentyn-1-yl)-2′-oxo-1′,2′-dihydro-2,3′-bipyridine-5′-carboxamide] | ≤ 5
14 | C[C@@H](N[C@H]1CC(C)(C)Oc2ccc(Br)cc21)[C@H](O)[C@H](Cc1ccccc1)NC(=O)c1cc(-c2ccccn2)c(=O)n(C2CCCC2)c1 [Example 480, N-((1S,2S,3R)-3-(((4S)-6-bromo-2,2-dimethyl-3,4-dihydro-2H-chromen-4-yl)amino)-2-hydroxy-1-(phenylmethyl)butyl)-1′-cyclopentyl-2′-oxo-1′,2′-dihydro-2,3′-bipyridine-5′-carboxamide] | ≤ 5
15 | CC1(C)C[C@@H](NC[C@@H](O)[C@H](Cc2ccccc2)NC(=O)c2cc(-c3ccccn3)c(=O)n(C3CCCC3)c2)c2cc(Br)ccc2N1 [Example 481, N-((1S,2R)-3-(((4R)-6-bromo-2,2-dimethyl-1,2,3,4-tetrahydro-4-quinolinyl)amino)-2-hydroxy-1-(phenylmethyl)propyl)-1′-cyclopentyl-2′-oxo-1′,2′-dihydro-2,3′-bipyridine-5′-carboxamide] | ≤ 5
16 | CC1(C)C[C@H](NC[C@@H](O)[C@H](Cc2ccccc2)NC(=O)c2cc(-c3ccccn3)c(=O)n(C3CCCC3)c2)c2cc(Br)ccc2N1 [Example 482, N-((1S,2R)-3-(((4S)-6-bromo-2,2-dimethyl-1,2,3,4-tetrahydro-4-quinolinyl)amino)-2-hydroxy-1-(phenylmethyl)propyl)-1′-cyclopentyl-2′-oxo-1′,2′-dihydro-2,3′-bipyridine-5′-carboxamide] | ≤ 5
17 | CCCOC[C@H](NC(=O)c1cc(-c2ccccn2)c(=O)n(C2CCCC2)c1)[C@H](O)CN[C@H]1CC2(CCC2)Oc2ccc(CC)cc21 [Example 483, 1′-cyclopentyl-N-((1S,2R)-3-(((4S)-6-ethyl-3,4-dihydrospiro[chromene-2,1′-cyclobutan]-4-yl)amino)-2-hydroxy-1-((propyloxy)methyl)propyl)-2′-oxo-1′,2′-dihydro-2,3′-bipyridine-5′-carboxamide] | ≤ 5
18 | CCc1ccc2c(c1)[C@@H](NC[C@@H](O)[C@H](Cc1ccccc1)NC(=O)[C@H]1CN(C(=O)N3CCCCC3)CCO1)CC(C)(C)O2 [Example 484, (2R)-N-((1S,2R)-3-(((4S)-6-ethyl-2,2-dimethyl-3,4-dihydro-2H-chromen-4-yl)amino)-2-hydroxy-1-(phenylmethyl)propyl)-4-(1-piperidinylcarbonyl)-2-morpholinecarboxamide] | ≤ 5
19 | CCc1ccc2c(c1)[C@@H](NC[C@@H](O)[C@H](Cc1ccccc1)NC(=O)[C@@H]1CN(C(=O)N3CCCCC3)CCO1)CC(C)(C)O2 [Example 485, (2S)-N-((1S,2R)-3-(((4S)-6-ethyl-2,2-dimethyl-3,4-dihydro-2H-chromen-4-yl)amino)-2-hydroxy-1-(phenylmethyl)propyl)-4-(1-piperidinylcarbonyl)-2-morpholinecarboxamide] | ≤ 5
20 | CC(C)(C)Cc1ccc2c(c1)[C@H](NC[C@@H](O)[C@H](Cc1ccccc1)NC(=O)c1cc(-c3ccccn3)c(=O)n(C3CCCC3)c1)CC(C)(C)N2 [Example 488, 1′-cyclopentyl-N-((1S,2R)-3-(((4R)-6-(2,2-dimethylpropyl)-2,2-dimethyl-1,2,3,4-tetrahydro-4-quinolinyl)amino)-2-hydroxy-1-(phenylmethyl)propyl)-2′-oxo-1′,2′-dihydro-2,3′-bipyridine-5′-carboxamide] | ≤ 5
21 | CC(C)(C)Cc1ccc2c(c1)[C@@H](NC[C@@H](O)[C@H](Cc1ccccc1)NC(=O)c1cc(-c3ccccn3)c(=O)n(C3CCCC3)c1)CC(C)(C)N2 [Example 489, 1′-cyclopentyl-N-((1S,2R)-3-(((4S)-6-(2,2-dimethylpropyl)-2,2-dimethyl-1,2,3,4-tetrahydro-4-quinolinyl)amino)-2-hydroxy-1-(phenylmethyl)propyl)-2′-oxo-1′,2′-dihydro-2,3′-bipyridine-5′-carboxamide] | ≤ 5
22 | Cc1cccc(C(=O)N2CCO[C@H](C(=O)N[C@@H](Cc3cccc(C#N)c3)[C@H](O)CN[C@H]3CC4(CCC4)Cc4ncc(C)cc43)C2)c1 [Example 490, (2S)-N-((1S,2R)-1-((3-cyanophenyl)methyl)-2-hydroxy-3-(((5′S)-3′-methyl-5′,8′-dihydro-6′H-spiro[cyclobutane-1,7′-quinolin]-5′-yl)amino)propyl)-4-((3-methylphenyl)carbonyl)-2-morpholinecarboxamide] | ≤ 5
23 | Cc1cccc(C(=O)N2CCO[C@@H](C(=O)N[C@@H](Cc3cccc(C#N)c3)[C@H](O)CN[C@H]3CC4(CCC4)Cc4ncc(C)cc43)C2)c1 [Example 491, (2R)-N-((1S,2R)-1-((3-cyanophenyl)methyl)-2-hydroxy-3-(((5′S)-3′-methyl-5′,8′-dihydro-6′H-spiro[cyclobutane-1,7′-quinolin]-5′-yl)amino)propyl)-4-((3-methylphenyl)carbonyl)-2-morpholinecarboxamide] | ≤ 5
24 | Cc1cccc(C(=O)N2CCO[C@H](C(=O)N[C@@H](Cc3cc(F)cc(F)c3)[C@H](O)CN[C@H]3CC4(CCC4)Cc4ncc(C)cc43)C2)c1 [Example 492, (2S)-N-((1S,2R)-1-((3,5-difluorophenyl)methyl)-2-hydroxy-3-(((5′S)-3′-methyl-5′,8′-dihydro-6′H-spiro[cyclobutane-1,7′-quinolin]-5′-yl)amino)propyl)-4-((3-methylphenyl)carbonyl)-2-morpholinecarboxamide] | ≤ 5
